Test results as given in paper PMC11089506 (Journal of Medicinal Chemistry, 2024).
Counter-ions that a name gives are not always drawn. Like-named read-outs stand apart in the source and are kept apart here.

Legend:
human 5-HT2CR = human 5-HT2CR (Homo sapiens, UniProt P28335); test: Ca2+/Fluo-4 assay, agonist mode, stable 5-HT2CR-HEK293 cells; settings: for 5-HT2CR Rmax ± S.E.M.: % of the 5-HT Rmax on the same 96-well plate; for 5-HT2CR Rmax (%): % of the 5-HT Rmax
human 5-HT2AR = human 5-HT2AR (Homo sapiens, UniProt P28223); test: Ca2+/Fluo-4 assay, agonist mode, stable 5-HT2AR-HEK293 cells; settings: for 5-HT2AR Rmax (%): % of the 5-HT Rmax; for 5-HT2AR Rmax ± S.E.M.: % of the 5-HT Rmax on the same 96-well plate
human 5-HT2AR, sequence (P28223 whole entry): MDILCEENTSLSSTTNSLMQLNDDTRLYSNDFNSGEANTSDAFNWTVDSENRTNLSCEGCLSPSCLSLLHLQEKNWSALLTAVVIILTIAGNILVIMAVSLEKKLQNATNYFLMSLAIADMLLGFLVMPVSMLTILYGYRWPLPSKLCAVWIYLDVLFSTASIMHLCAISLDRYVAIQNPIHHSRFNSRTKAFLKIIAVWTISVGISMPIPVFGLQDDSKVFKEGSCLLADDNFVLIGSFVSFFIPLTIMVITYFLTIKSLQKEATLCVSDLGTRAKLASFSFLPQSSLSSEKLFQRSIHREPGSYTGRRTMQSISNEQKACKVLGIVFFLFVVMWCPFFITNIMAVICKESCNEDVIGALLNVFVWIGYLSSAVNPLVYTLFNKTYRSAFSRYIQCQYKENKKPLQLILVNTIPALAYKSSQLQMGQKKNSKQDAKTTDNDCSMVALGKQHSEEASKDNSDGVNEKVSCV

[1] = 5-HT2CR EC50 (nM), Table 2, at least 3 independent experiments
[2] = 5-HT2AR EC50 (nM), Table 2, at least 3 independent experiments
[3] = read-out: 5-HT2AR EC50, Table 1, at least 3 independent experiments
[4] = read-out: 5-HT2CR EC50, Table 1, at least 3 independent experiments
[5] = 5-HT2AR EC50 (nM), Table 1, at least 3 independent experiments
[6] = 5-HT2CR EC50 (nM), Table 1, at least 3 independent experiments
[7] = read-out: 5-HT2AR EC50, Table 2, at least 3 independent experiments

human 5-HT2CR, sequence (P28335 33-458): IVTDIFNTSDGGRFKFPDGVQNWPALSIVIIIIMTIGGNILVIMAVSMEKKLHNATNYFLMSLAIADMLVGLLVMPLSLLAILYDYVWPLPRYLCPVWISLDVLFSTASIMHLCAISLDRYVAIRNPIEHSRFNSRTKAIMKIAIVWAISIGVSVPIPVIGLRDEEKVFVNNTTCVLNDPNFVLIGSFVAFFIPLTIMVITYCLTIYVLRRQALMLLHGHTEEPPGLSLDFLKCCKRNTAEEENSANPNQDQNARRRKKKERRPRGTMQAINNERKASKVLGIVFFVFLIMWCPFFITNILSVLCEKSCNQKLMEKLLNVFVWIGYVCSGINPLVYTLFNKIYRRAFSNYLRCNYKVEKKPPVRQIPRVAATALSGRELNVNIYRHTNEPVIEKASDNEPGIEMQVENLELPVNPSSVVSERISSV

Row | Compound | 5-HT2CR pEC50 ± S.E.M. (human 5-HT2CR; Table S2) | 5-HT2AR pEC50 ± S.E.M. (human 5-HT2AR; Table S2) | 5-HT2AR Rmax ± S.E.M. (human 5-HT2AR; Table S2) [%] | EC50 (human 5-HT2AR; [3]) [nM] | EC50 (human 5-HT2CR; [4]) [nM] | also measured
1 | COc1cc(C(F)(F)F)c(OC)cc1[C@H]1CCCNC1 [(R)-11, 3-(2,5-Dimethoxy-4-(trifluoromethyl)phenyl)piperidine Hydrochloride] | 6.07 ± 0.06 |  |  |  |  | 
2 | COc1cc(C(F)(F)F)c(OC)cc1[C@H]1CCCN(C)C1 [(R)-19, (R)-3-(2,5-Dimethoxy-4-(trifluoromethyl)phenyl)-1-methylpiperidine] |  | 5.96 ± 0.09 | 53 ± 8 |  |  | 5-HT2AR Rmax (%) (human 5-HT2AR; Table 2): 53%; EC50 (human 5-HT2CR; [1]): > 10000 nM
3 | CCN1CCC[C@H](c2cc(OC)c(C(F)(F)F)cc2OC)C1 [(R)-20, (R)-3-(2,5-Dimethoxy-4-(trifluoromethyl)phenyl)-1-ethylpiperidine] |  |  |  |  |  | EC50 (human 5-HT2AR; [2]): > 10000 nM; EC50 (human 5-HT2CR; [1]): > 10000 nM
4 | COc1cc(C(F)(F)F)c(OC)cc1[C@@H]1CCCN(C)C1 [(S)-19, (S)-3-(2,5-Dimethoxy-4-(trifluoromethyl)phenyl)-1-methylpiperidine] | 6.04 ± 0.03 |  | 19 ± 2 |  |  | 5-HT2AR Rmax (%) (human 5-HT2AR; Table 2): 19%
5 | CCN1CCC[C@@H](c2cc(OC)c(C(F)(F)F)cc2OC)C1 [(S)-20, (S)-3-(2,5-Dimethoxy-4-(trifluoromethyl)phenyl)-1-ethylpiperidine] |  | 5.82 ± 0.08 | 44 ± 3 |  |  | 5-HT2AR Rmax (%) (human 5-HT2AR; Table 2): 44%; EC50 (human 5-HT2CR; [1]): > 10000 nM
6 | COc1cc(C2CNC2)c(OC)cc1Br [Compound 4, 3-(4-Bromo-2,5-dimethoxyphenyl)azetidine Hydrochloride] | 8.24 ± 0.07 | 8.80 ± 0.10 | 97 ± 3 | 1.6 | 5.2 | 5-HT2AR Rmax (%) (human 5-HT2AR; Table 1): 97 ± 3%; 5-HT2CR Rmax ± S.E.M. (human 5-HT2CR; Table S2): 90 ± 3%
7 | NCCc1c[nH]c2ccc(O)cc12 [Compound 5-HT, 5-hydroxytryptamine, reference compound] |  |  | 100 |  |  | 5-HT2AR Rmax (%) (human 5-HT2AR; Table 1): 100%
8 | Br.COc1cc(C2CCNC2)c(OC)cc1Br (centres unmarked) [Compound 5dis, 3-(4-Bromo-2,5-dimethoxyphenyl)pyrrolidine Hydrobromide] | 7.75 ± 0.08 | 8.11 ± 0.08 | 39 ± 4 | 7.7 | 18 | 5-HT2AR Rmax (%) (human 5-HT2AR; Table 1): 39 ± 4%; Rmax at 5-HT2CR (human 5-HT2CR): 73%; 5-HT2CR Rmax (%) (human 5-HT2CR; Table 1): 16 ± 3%; 5-HT2CR Rmax ± S.E.M. (human 5-HT2CR; Table S2): 16 ± 3%
9 | Br.COc1cc(C2CCNC2)c(OC)cc1Br (centres unmarked) [Compound 5eu, 3-(4-Bromo-2,5-dimethoxyphenyl)pyrrolidine Hydrobromide] | 7.59 ± 0.03 | 8.28 ± 0.07 | 57 ± 3 | 5.3 | 26 | 5-HT2AR Rmax (%) (human 5-HT2AR; Table 1): 57 ± 3%; Rmax at 5-HT2CR (human 5-HT2CR): 16%; 5-HT2CR Rmax (%) (human 5-HT2CR; Table 1): 73 ± 3%; 5-HT2CR Rmax ± S.E.M. (human 5-HT2CR; Table S2): 73 ± 3%
10 | COc1cc(C2CCCNC2)c(OC)cc1Br (centres unmarked) [Compound 6dis, 3-(4-Bromo-2,5-dimethoxyphenyl)piperidine] |  |  |  |  |  | EC50 (human 5-HT2AR; [5]): 370 nM; EC50 (human 5-HT2CR; [6]): 1900 nM
11 | COc1ccc(OC)c(C2CCCNC2)c1 (centres unmarked) [Compound 7, 3-(2,5-Dimethoxyphenyl)piperidine] |  |  |  |  |  | agonist activity at 5-HT2AR (in words) (human 5-HT2AR): very weak 5-HT2AR agonist activity; EC50 (human 5-HT2AR; [5]): > 10000 nM; EC50 (human 5-HT2CR; [6]): > 10000 nM
12 | COc1cc(C2CCCNC2)c(OC)cc1Cl (centres unmarked) [Compound 8dis, 3-(4-Chloro-2,5-dimethoxyphenyl)piperidine] | 5.75 ± 0.04 | 6.16 ± 0.11 |  | 690 | 1800 | 
13 | COc1cc(C2CCCNC2)c(OC)cc1I (centres unmarked) [Compound 9dis, 3-(4-Iodo-2,5-dimethoxyphenyl)piperidine] | 5.55 ± 0.08 | 6.58 ± 0.03 |  | 260 | 2800 | 
14 | COc1cc(C2CCCNC2)c(OC)cc1C#N (centres unmarked) [Compound 10dis, 2,5-Dimethoxy-4-(piperidin-3-yl)benzonitrile] | ~ 5.0 | 5.66 ± 0.06 |  | 2200 | ~10000 | EC50 (human 5-HT2CR; read-out: 5-HT2CR EC50, Table S2): ~10000 nM
15 | COc1cc(C2CCCNC2)c(OC)cc1C.Cl (centres unmarked) [Compound 12dis, 3-(2,5-Dimethoxy-4-methylphenyl)piperidine Hydrochloride] | 5.92 ± 0.08 | 6.58 ± 0.06 |  | 260 | 1200 | 
16 | COc1cc(C2CCCNC2)c(OC)cc1C.Cl (centres unmarked) [Compound 12eu, 3-(2,5-Dimethoxy-4-methylphenyl)piperidine Hydrochloride] |  | 6.98 ± 0.10 |  | 100 |  | EC50 (human 5-HT2CR; [6]): > 10000 nM

Row | Compound | 5-HT2CR pEC50 ± S.E.M. (human 5-HT2CR; Table S2) | 5-HT2AR pEC50 ± S.E.M. (human 5-HT2AR; Table S2) | 5-HT2AR Rmax ± S.E.M. (human 5-HT2AR; Table S2) [%] | EC50 (human 5-HT2AR; [3]) [nM] | EC50 (human 5-HT2CR; [4]) [nM] | also measured
17 | CCc1cc(OC)c(C2CCCNC2)cc1OC.Cl (centres unmarked) [Compound 13dis, 3-(4-Ethyl-2,5-dimethoxyphenyl)piperidine Hydrochloride] | 6.19 ± 0.12 | 6.94 ± 0.09 |  | 110 | 640 | 
18 | CCc1cc(OC)c(C2CCCNC2)cc1OC.Cl (centres unmarked) [Compound 13eu, 3-(4-Ethyl-2,5-dimethoxyphenyl)piperidine Hydrochloride] | 6.42 ± 0.12 | 7.39 ± 0.11 |  | 41 | 380 | agonist activity at 5-HT2CR (in words) (human 5-HT2CR): measurable agonist activity
19 | CCCCc1cc(OC)c(C2CCCNC2)cc1OC.Cl (centres unmarked) [Compound 14dis, 3-(4-Butyl-2,5-dimethoxyphenyl)piperidine Hydrochloride] | 5.80 ± 0.07 | 6.46 ± 0.05 |  | 340 | 1600 | 
20 | CCCCc1cc(OC)c(C2CCCNC2)cc1OC.Cl (centres unmarked) [Compound 14eu, 3-(4-Butyl-2,5-dimethoxyphenyl)piperidine Hydrochloride] |  | 6.57 ± 0.06 |  | 270 |  | EC50 (human 5-HT2CR; [6]): > 10000 nM
21 | COc1cc(C2CCCNC2)c(OC)cc1SC.Cl (centres unmarked) [Compound 15dis, 3-(2,5-Dimethoxy-4-(methylthio)phenyl)piperidine Hydrochloride] | 5.63 ± 0.03 | 6.75 ± 0.06 |  | 180 | 2300 | 
22 | COc1cc(C2CCCNC2)c(OC)cc1SC.Cl (centres unmarked) [Compound 15eu, 3-(2,5-Dimethoxy-4-(methylthio)phenyl)piperidine Hydrochloride] | 6.29 ± 0.06 | 7.59 ± 0.11 |  | 26 | 510 | 
23 | CCSc1cc(OC)c(C2CCCNC2)cc1OC.Cl (centres unmarked) [Compound 16dis, 3-(2,5-Dimethoxy-4-(ethylthio)phenyl)piperidine Hydrochloride] | 6.11 ± 0.08 | 6.73 ± 0.10 |  | 190 | 780 | 
24 | CCSc1cc(OC)c(C2CCCNC2)cc1OC.Cl (centres unmarked) [Compound 16eu, 3-(2,5-Dimethoxy-4-(ethylthio)phenyl)piperidine Hydrochloride] | 6.25 ± 0.08 | 7.42 ± 0.09 |  | 38 | 570 | 
25 | COc1cc(C2CCCNC2)c(OC)cc1SC(C)C (centres unmarked) [Compound 17dis, 3-(4-(Isopropylthio)-2,5-dimethoxyphenyl)piperidine] | 5.64 ± 0.05 | 6.54 ± 0.09 |  | 290 | 2300 | 
26 | COc1cc(C2CCCNC2)c(OC)cc1SC(C)C (centres unmarked) [Compound 17eu, 3-(4-(Isopropylthio)-2,5-dimethoxyphenyl)piperidine] |  | 6.81 ± 0.09 |  | 160 |  | EC50 (human 5-HT2CR; [6]): > 10000 nM
27 | COc1cc(C(F)(F)F)c(OC)cc1CCN [Compound 18, 2-(2,5-Dimethoxy-4-(trifluoromethyl)phenyl)ethan-1-amine Hydrochloride, reference compound] |  |  | 67 ± 5 |  |  | EC50 (human 5-HT2AR; 5-HT2AR pEC50 ± S.E.M., Table S2): 0.724 nM; fold higher agonist potency at 5-HT2AR than at 5-HT2CR (selectivity) (human 5-HT2AR; 5-HT2AR vs 5-HT2CR): 10 fold; 5-HT2AR Rmax (%) (human 5-HT2AR; Table 2): 67%; EC50 (human 5-HT2CR; 5-HT2CR pEC50 ± S.E.M., Table S2): 7.59 nM; 5-HT2CR Rmax (%) (human 5-HT2CR; Table 2): 71%; 5-HT2CR Rmax ± S.E.M. (human 5-HT2CR; Table S2): 71 ± 2%
28 | Cl.FC(F)(F)c1ccc(C2CCCNC2)cc1 (centres unmarked) [Compound 21, 3-(4-(Trifluoromethyl)phenyl)piperidine Hydrochloride] |  |  |  |  |  | agonist activity at 5-HT2AR (in words) (human 5-HT2AR): negligible agonist activity; EC50 (human 5-HT2AR; [2]): > 10000 nM; agonist activity at 5-HT2CR (in words) (human 5-HT2CR): negligible agonist activity; EC50 (human 5-HT2CR; [1]): > 10000 nM
29 | COc1cc(C(F)(F)F)ccc1C1CCCNC1.Cl (centres unmarked) [Compound 22dis, 3-(2-Methoxy-4-(trifluoromethyl)phenyl)piperidine Hydrochloride] | 5.85 ± 0.05 | 6.18 ± 0.07 | 80 ± 5 |  |  | 5-HT2AR Rmax (%) (human 5-HT2AR; Table 2): 80%; EC50 (human 5-HT2AR; [7]): 660 nM; EC50 (human 5-HT2CR; read-out: 5-HT2CR EC50, Table 2, at least 3 independent experiments): 1400 nM
30 | COc1cc(C(F)(F)F)ccc1C1CCCNC1.Cl (centres unmarked) [Compound 22eu, 3-(2-Methoxy-4-(trifluoromethyl)phenyl)piperidine Hydrochloride] |  | 7.16 ± 0.05 | 68 ± 2 |  |  | 5-HT2AR Rmax (%) (human 5-HT2AR; Table 2): 68%; EC50 (human 5-HT2AR; [7]): 69 nM; EC50 (human 5-HT2CR; [1]): > 10000 nM
31 | COc1cc(C2CCCNC2)ccc1C(F)(F)F.Cl (centres unmarked) [Compound 23, 3-(3-Methoxy-4-(trifluoromethyl)phenyl)piperidine Hydrochloride] |  |  |  |  |  | fold drop in agonist potency (fold higher EC50) at 5-HT2AR (human 5-HT2AR; relative to (S)-11): more than 500 fold
